Laboratory results as given in ChEMBL document CHEMBL1201862, “PubChem BioAssay data set” (2004).
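96-well plates; 48 h exposure; 5 concentrations. Endpoints by linear interpolation between flanking doses. Not reached: highest tested concentration assigned. GI50 = concentration required for 50% inhibition of growth.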 The source made the active and inactive calls. Rule as the data show it: active = GI50 up to about 1.1 µM and inactive = higher.

Legend:
Assay in all cases: inhibition of tumour cell growth, NCI panel, 48 h
[1] = tested on: Hs-578T
[2] = tested on: NCI-H522
[3] = tested on: RPMI-8226
[4] = tested on: CCRF-CEM
[5] = tested on: SK-MEL-5
[6] = tested on: BT-549
[7] = tested on: NCI/ADR-RES
[8] = tested on: HCT-15
[9] = tested on: UO-31
[10] = tested on: DU-145
[11] = tested on: PC-3
[12] = tested on: OVCAR-3
[13] = tested on: TK-10
[14] = tested on: SK-MEL-28
[15] = tested on: KM12
[16] = tested on: CAKI-1
[17] = tested on: MOLT-4
[18] = tested on: HT-29
[19] = tested on: NCI-H460
[20] = tested on: SR

| Structure (SMILES) | GI50 [1] | GI50 [2] | GI50 [3] | GI50 [4] | GI50 [5] | GI50 [6] | GI50 [7] | GI50 [8] [µM] | GI50 [9] | GI50 [10] | GI50 [11] | GI50 [12] | GI50 [13] | GI50 [14] | GI50 [15] | GI50 [16] | GI50 [17] | GI50 [18] | GI50 [19] | GI50 [20] |
| --- | --- | --- | --- | --- | --- | --- | --- | --- | --- | --- | --- | --- | --- | --- | --- | --- | --- | --- | --- | --- |
| O=C(n1c(=O)n(-c2ccc([N+](=O)[O-])cc2)c(=O)n1C(=O)C(Cl)(Cl)Cl)C(Cl)(Cl)Cl | > 100 µM (inactive) | > 100 µM (inactive) | > 100 µM (inactive) | > 100 µM (inactive) | > 100 µM (inactive) | > 100 µM (inactive) | > 100 µM (inactive) | > 100 | > 100 µM (inactive) | > 100 µM (inactive) | > 100 µM (inactive) | > 100 µM (inactive) | > 100 µM (inactive) | > 100 µM (inactive) | > 100 µM (inactive) | > 100 µM (inactive) | > 10 µM (inactive) | > 100 µM (inactive) | > 100 µM (inactive) |  |
| COc1cc(C2=NNC(=O)c3ccccc3N2c2nc(-c3cccs3)nc3ccc(Br)cc23)cc(OC)c1OC | 5.48 µM (inactive) | 9.06 µM (inactive) | 2.42 µM (inactive) | 1.45 µM (inactive) | 10.5 µM (inactive) | 32.8 µM (inactive) | 4.91 µM (inactive) | 4.38 | 16.1 µM (inactive) | 14.7 µM (inactive) | 10.3 µM (inactive) | 5.4 µM (inactive) | 23.2 µM (inactive) | 13.3 µM (inactive) | 4.8 µM (inactive) | 15.3 µM (inactive) |  | 7.73 µM (inactive) | 2.91 µM (inactive) |  |
| O=C(CSc1nc2ccc(Cl)cc2c(=O)n1-c1ccccc1)N/N=C1\C(=O)Nc2ccc(F)cc21 | 4.25 µM (inactive) | 1.81 µM (inactive) | 1.77 µM (inactive) | 2.7 µM (inactive) | 3.13 µM (inactive) | 1.85 µM (inactive) | 2.65 µM (inactive) | 1.96 | 0.189 µM (active) | 2.16 µM (inactive) | 2.39 µM (inactive) | 1.89 µM (inactive) | 4.21 µM (inactive) | 3.05 µM (inactive) | 3.13 µM (inactive) | 4.81 µM (inactive) | 2.88 µM (inactive) | 2.2 µM (inactive) | 3.7 µM (inactive) |  |
| Nc1cc2nc(O)c(O)nc2cc1N | > 100 µM (inactive) |  | > 100 µM (inactive) | > 100 µM (inactive) | > 100 µM (inactive) | > 100 µM (inactive) | > 100 µM (inactive) | > 100 | > 100 µM (inactive) | > 100 µM (inactive) | > 100 µM (inactive) | > 100 µM (inactive) | > 100 µM (inactive) | > 100 µM (inactive) | > 100 µM (inactive) | > 100 µM (inactive) | > 100 µM (inactive) | > 100 µM (inactive) | > 100 µM (inactive) | > 100 µM (inactive) |
| COc1ccc(C2C(C#N)=C(S)N(C3OC(COC(C)=O)C(OC(C)=O)C(OC(C)=O)C3OC(C)=O)C(C)=C2C(C)=O)cc1 (configuration not stated) | 59.3 µM (inactive) |  | 73.1 µM (inactive) | 30.3 µM (inactive) | 26.4 µM (inactive) | 52.4 µM (inactive) | > 100 µM (inactive) | > 100 | 81.8 µM (inactive) | > 100 µM (inactive) | 31.3 µM (inactive) | 64.7 µM (inactive) | > 100 µM (inactive) | > 100 µM (inactive) | > 100 µM (inactive) | > 100 µM (inactive) | 20.1 µM (inactive) | 71.3 µM (inactive) | 83.4 µM (inactive) | 49.1 µM (inactive) |
| C[C@@H]1OC(=O)C[C@H]2CC(=O)N(CCc3cn(S(=O)(=O)C(F)(F)F)c4ccccc34)C[C@@H]21 | > 100 µM (inactive) | > 100 µM (inactive) | > 100 µM (inactive) | > 100 µM (inactive) | > 100 µM (inactive) | > 100 µM (inactive) | > 100 µM (inactive) | > 100 | > 100 µM (inactive) | > 100 µM (inactive) | > 100 µM (inactive) | > 100 µM (inactive) | > 100 µM (inactive) | > 100 µM (inactive) | > 100 µM (inactive) | > 100 µM (inactive) | > 100 µM (inactive) | > 100 µM (inactive) | > 100 µM (inactive) |  |
| CCOc1ccc2c(c1)C(/C(C(Cl)=C(Cl)Cl)=[N+](/[O-])OC(=O)c1ccccc1)=N2 | 52.8 µM (inactive) | 35.2 µM (inactive) |  | 36.9 µM (inactive) | 35.3 µM (inactive) | 25.4 µM (inactive) | 57.3 µM (inactive) | 50.2 | > 100 µM (inactive) | 47.2 µM (inactive) | 30.9 µM (inactive) | 30.8 µM (inactive) | 99.3 µM (inactive) | > 100 µM (inactive) | 35.9 µM (inactive) | 32.6 µM (inactive) | 39 µM (inactive) | 61.2 µM (inactive) | 76 µM (inactive) | 53.1 µM (inactive) |
